Measurements taken from publication PMC10423561, “Effects of the CYP3A inhibitors, voriconazole, itraconazole, and fluconazole on the pharmacokinetics of osimertinib in rats” (PeerJ, 2023).
Several values for one entry are separate records, joined by “and”; a condition that tells them apart may be missing. Equal entries are not always repeated. Where two headings read alike, the source gives them in different places.

Columns and labels:
[1] = Pharmacokinetic study of OSIM in rats, alone or after voriconazole, itraconazole or fluconazole pretreatment (plasma concentration by HPLC-MS/MS); format: in vivo, Sprague-Dawley rats; parameters: Conc. (plasma): unit not given here; conditions: for Conc. (plasma): individual rats; for AUC(0-inf) / AUC(0-t) / CL/F / Cmax / Tmax / Vd/F / half-life / MRT inf: male, Sprague-Dawley, rat, plasma, po, 10 mg/kg; for Vd/F: read-out: Vz/F; for MRT inf: read-out: MRT0–inf
Description: A liquid chromatography with tandem mass spectrometry (HPLC-MS/MS) system coupled to a JasperTM HPLC and Triple […] and equipped with an electrospray ionization (ESI) interface source (AB Sciex, Redwood City, CA, USA) was used for the analysis. […] Waters Corp., Milford, MA, USA) maintained at 45 °C. Mobile phase A was 0.2% formic acid in water, and mobile phase B was acetonitrile. […] Carry-over was minimized with methanol-acetonitrile-isopropanol-water solution (1:1:1:1, v/v/v/v) before and after the injection procedure. […] Subsequently, all samples were vortex-mixed for 30 s and were centrifuged at 14,000 × g for 10 min. Finally, each sample was reconstituted with an aliquot of mobile phase A. The sample was transferred to a 0.8 mL 96-well plate, of which 5 μL was injected into HPLC-MS/MS system for analysis. Twenty-four adult male Sprague-Dawley rats (220 ± 20 g) with specific pathogen free were supplied by the Laboratory Animal Center of Zhejiang Provincial People's Hospital. […] The study was performed in accordance with the Animal Care and Use Committee of Zhejiang Provincial People's Hospital (number: […], and FCZ were prepared in 0.3% carboxymethyl cellulose sodium (CMC-Na). After 12 h of fasting and free water consumption, the rats were randomly separated into four groups, and the sample size was based on a similar study using as few rats as possible (n = 6): control (equivalent volume of 0.3% CMC-Na), VCZ (20 mg/kg), ICZ (20 mg/kg), and FCZ (20 mg/kg) groups. Only those responsible for treatment management researchers know this group well. Each group was housed in a single cage. The rats in the four groups were orally dosed once daily with 0.3% CMC-Na, VCZ, ICZ, or FCZ, respectively; they reached steady-state exposure after five continuous days of dosing. […] All rats received an oral gavage dose of approximately equivalent volume treatment regimens (one mL). Rats were restrained on the rat fixator on the laboratory bench. […] Experimental data were given as mean ± standard deviation (SD). The mean concentration levels of OSIM versus time profile were drawn using GraphPad Prism 9.4 (GraphPad Software, Inc., San Diego, CA, USA). […] SPSS 26.0 was used for statistical analysis (IBM, Armonk, USA). Significant differences among the groups were identified using one-way ANOVA and Tukey test. P < 0.05 was considered significant.

[2] = parameters: method as in Brown et al., 2017; conditions: with ICZ compared with OSIM administered alone; ref Brown et al., 2017; cited from earlier work
[3] = ICZ group vs control, rats, P < 0.05
[4] = OSIM 10 mg/kg oral after fluconazole 20 mg/kg oral once daily for 5 days, rats, n = 6
[5] = OSIM 10 mg/kg oral after voriconazole 20 mg/kg oral once daily for 5 days, rats, n = 6
[6] = co-administered with itraconazole vs control, rats
[7] = co-administration with VCZ vs OSIM alone, rats
[8] = co-administration with fluconazole vs control, rats
[9] = OSIM 10 mg/kg oral after itraconazole 20 mg/kg oral once daily for 5 days, rats, n = 6
[10] = OSIM 10 mg/kg oral, control (0.3% CMC-Na), rats, n = 6, mean ± SD

## C=CC(=O)Nc1cc(Nc2nccc(-c3cn(C)c4ccccc34)n2)c(OC)cc1N(C)CCN(C)C [OSIM, Osimertinib]
[1]; Con group (OSIM alone), Time 0.25
  Conc. (plasma): 8.0671 and 11.9979
[1]; Con group (OSIM alone), Time 0.5
  Conc. (plasma): 12.1988 and 19.9452
[1]; Con group (OSIM alone), Time 1
  Conc. (plasma): 26.2008 and 25.1352
[1]; Con group (OSIM alone), Time 2
  Conc. (plasma): 34.4763 and 31.6327
[1]; Con group (OSIM alone), Time 4
  Conc. (plasma): 32.976 and 28.9864
[1]; Con group (OSIM alone), Time 5
  Conc. (plasma): 24.2861 and 21.3664
[1]; Con group (OSIM alone), Time 6
  Conc. (plasma): 16.055 and 19.5716 and 16.4633
[1]; Con group (OSIM alone), Time 8
  Conc. (plasma): 9.5939 and 12.9324 and 12.4752
[1]; Con group (OSIM alone), Time 12
  Conc. (plasma): 3.1238 and 5.2228 and 5.1031
[1]; Con group (OSIM alone), Time 24
  Conc. (plasma): 0.3493 and 0.667
[1]; Con group (OSIM alone), Time 48
  Conc. (plasma): 0.1948 and 0.7004
[1]; FCZ group vs control, rats
  AUC0–t of OSIM enhanced by: ~1.01 fold
  Cmax of OSIM enhanced by: approximately 0.53 fold
  reduction of Cl/F of OSIM: 49.49%
  reduction of Vz/F of OSIM: 55.89%
[1]; Flu group (fluconazole pretreatment), Time 0.25
  Conc. (plasma): 7.8097 and 15.8697
[1]; Flu group (fluconazole pretreatment), Time 0.5
  Conc. (plasma): 11.781 and 29.3217
[1]; Flu group (fluconazole pretreatment), Time 1
  Conc. (plasma): 19.1216
[1]; Flu group (fluconazole pretreatment), Time 2
  Conc. (plasma): 33.0063 and 43.3299
[1]; Flu group (fluconazole pretreatment), Time 3
  Conc. (plasma): 39.5899 and 53.0362
[1]; Flu group (fluconazole pretreatment), Time 4
  Conc. (plasma): 43.6983 and 40.9109
[1]; Flu group (fluconazole pretreatment), Time 5
  Conc. (plasma): 33.9054 and 36.7921
[1]; Flu group (fluconazole pretreatment), Time 6
  Conc. (plasma): 33.9688
[1]; Flu group (fluconazole pretreatment), Time 8
  Conc. (plasma): 18.8994 and 29.246 and 22.772
[1]; Flu group (fluconazole pretreatment), Time 12
  Conc. (plasma): 8.5799 and 18.5501 and 14.3797
[1]; Flu group (fluconazole pretreatment), Time 24
  Conc. (plasma): 1.2033 and 2.0928 and 2.1757
[1]; Flu group (fluconazole pretreatment), Time 48
  Conc. (plasma): 0.3201 and 0.2978
[1]; [3]
  decrease in Vz/F of OSIM: 38.08%
  decrease in t1/2 of OSIM: 25.41%
[1]; Itr group (itraconazole pretreatment), Time 0.25
  Conc. (plasma): 5.2753 and 10.1717
[1]; Itr group (itraconazole pretreatment), Time 0.5
  Conc. (plasma): 2.137 and 22.1484
[1]; Itr group (itraconazole pretreatment), Time 1
  Conc. (plasma): 14.402 and 30.439
[1]; Itr group (itraconazole pretreatment), Time 2
  Conc. (plasma): 19.1571 and 37.1482
[1]; Itr group (itraconazole pretreatment), Time 3
  Conc. (plasma): 31.5023
[1]; Itr group (itraconazole pretreatment), Time 4
  Conc. (plasma): 27.9801
[1]; Itr group (itraconazole pretreatment), Time 5
  Conc. (plasma): 22.7144 and 26.9275
[1]; Itr group (itraconazole pretreatment), Time 6
  Conc. (plasma): 27.5418 and 15.763 and 19.3207
[1]; Itr group (itraconazole pretreatment), Time 8
  Conc. (plasma): 24.0911 and 10.4766 and 13.0808
[1]; Itr group (itraconazole pretreatment), Time 12
  Conc. (plasma): 4.7714 and 7.383
[1]; Itr group (itraconazole pretreatment), Time 24
  Conc. (plasma): 1.7983 and 0.7083 and 1.0943
[1]; Itr group (itraconazole pretreatment), Time 48
  Conc. (plasma): 0.2444 and 0.2377
[1]; [4]
  MRT0–inf: 8.32 ± 0.47 h
  t1/2: 5.75 ± 0.25 h
  AUC(0-inf): 524 ± 92.4 ng·h/mL
  AUC(0-t): 521 ± 92.5 ng·h/mL
  CL/F: 325 mL/min/kg
  Cmax: 50.8 ± 8.41 ng/mL
  Tmax: 3.17 ± 0.98 h
  Vd/F: 162 ± 26.7 L/kg
[1]; [5]
  t1/2: 3.82 ± 0.34 h
  AUC(0-inf): 422 ± 57.9 ng·h/mL
  AUC(0-t): 422 ± 58.4 ng·h/mL
  CL/F: 401 mL/min/kg
  Cmax: 52.3 ± 10.5 ng/mL
  Tmax: 2.83 ± 0.41 h
  MRT inf: 6.83 ± 0.36 h
  Vd/F: 132 ± 17.9 L/kg
[1]; VCZ group vs control, rats
  decrease in Cl/F of OSIM: 37.74%
  decrease in Vz/F of OSIM: 64.03%
  decrease in t1/2 of OSIM: 42.56%
[1]; administration of OSIM with ICZ, rats
  other parameters (Cmax, Tmax, AUC, MRT, and Cl/F) compared with the control group: not significantly different
[1]; [6]
  increase in AUC0–t of OSIM: 34.80%
  increase in Cmax of OSIM: 13.91%
[1]; co-administration with FCZ vs control, rats
  effect on t1/2 and Tmax of orally administered OSIM: did not significantly alter
[1]; [7]
  increase in AUC0–t of OSIM: 62.56%
  increase in Cmax of OSIM: 58.04%
[1]; [8]
  increase in AUC0–t of OSIM: 100.98%
  increase in Cmax of OSIM: 53.45%
[1]; [9]
  AUC(0-inf): 357 ± 99.7 ng·h/mL
  AUC(0-t): 350 ± 96.3 ng·h/mL
  CL/F: 504 mL/min/kg
  Cmax: 37.7 ± 11.5 ng/mL
  Tmax: 3.83 ± 1.6 h
  half-life: 4.96 ± 1.1 h
  MRT inf: 7.51 ± 0.6 h
  Vd/F: 228 ± 127 L/kg
[1]; [10]
  AUC(0-inf): 264 ± 34.4 ng·h/mL
  AUC(0-t): 259 ± 33.1 ng·h/mL
  CL/F: 644 mL/min/kg
  Cmax: 33.1 ± 3.66 ng/mL
  Tmax: 2.33 ± 0.52 h
  half-life: 6.65 ± 0.48 h
  MRT inf: 7.61 ± 0.74 h
  Vd/F: 368 ± 36.3 L/kg
[1]; vor group (voriconazole pretreatment), Time 0.25
  Conc. (plasma): 7.2019 and 17.8367
[1]; vor group (voriconazole pretreatment), Time 0.5
  Conc. (plasma): 35.8513
[1]; vor group (voriconazole pretreatment), Time 1
  Conc. (plasma): 38.47
[1]; vor group (voriconazole pretreatment), Time 2
  Conc. (plasma): 40.5898 and 38.9958
[1]; vor group (voriconazole pretreatment), Time 3
  Conc. (plasma): 68.6321 and 46.961
[1]; vor group (voriconazole pretreatment), Time 4
  Conc. (plasma): 35.6688 and 44.311
[1]; vor group (voriconazole pretreatment), Time 5
  Conc. (plasma): 28.7864 and 35.6992
[1]; vor group (voriconazole pretreatment), Time 6
  Conc. (plasma): 35.4312 and 22.8434 and 29.124
[1]; vor group (voriconazole pretreatment), Time 8
  Conc. (plasma): 20.9535 and 15.9897 and 16.5811
[1]; vor group (voriconazole pretreatment), Time 12
  Conc. (plasma): 10.8434 and 7.3402 and 9.397
[1]; vor group (voriconazole pretreatment), Time 24
  Conc. (plasma): 0.9533 and 0.6206
[1]; vor group (voriconazole pretreatment), Time 48
  Conc. (plasma): 0.0227 and 0.021
[2]
  increase in AUC0–t of OSIM: approximately 8%
